From publication PMC3556730 (Neuropharmacology, 2011)
Like-named read-outs stand apart in the source and are kept apart here.

Assays:
5-HT2AR [1] = target: T1, 5-HT2AR (Homo sapiens, UniProt P28223)
5-HT2AR [2] = target: 5-HT2AR (Mus musculus, UniProt P35363); experiment: [3H]Ketanserin competition binding, mouse striatum membranes
5-HT2AR [3] = target: T1, 5-HT2AR; conditions: for Effect on 5-HT-induced 5-HT2AR-IP3 production / Effect on DOI-induced 5-HT2AR-IP3 production: co-expressing cells, D2R agonist 10^−5 M; for Emax (inositol phosphate production): HEK-5HT2AR-D2R, mean ± SEM
[4] = tested on: MK-801-induced locomotor activity; experiment: MK-801-induced locomotor activity in wild-type and 5-HT2AR-KO mice; assay type: in vivo; conditions: MK-801 0.5 mg/kg i.p.; wild-type and 5-HT2AR-KO mice (similar)
5-HT2AR [5] = target: T1, 5-HT2AR; conditions: HEK-5HT2AR; vehicle; mean ± SEM
5-HT2AR [6] = target: T1, 5-HT2AR; conditions: HEK-5HT2AR
[7] = mouse striatum, with quinpirole (10^−5 M)

T1 sequence (P28223 whole entry): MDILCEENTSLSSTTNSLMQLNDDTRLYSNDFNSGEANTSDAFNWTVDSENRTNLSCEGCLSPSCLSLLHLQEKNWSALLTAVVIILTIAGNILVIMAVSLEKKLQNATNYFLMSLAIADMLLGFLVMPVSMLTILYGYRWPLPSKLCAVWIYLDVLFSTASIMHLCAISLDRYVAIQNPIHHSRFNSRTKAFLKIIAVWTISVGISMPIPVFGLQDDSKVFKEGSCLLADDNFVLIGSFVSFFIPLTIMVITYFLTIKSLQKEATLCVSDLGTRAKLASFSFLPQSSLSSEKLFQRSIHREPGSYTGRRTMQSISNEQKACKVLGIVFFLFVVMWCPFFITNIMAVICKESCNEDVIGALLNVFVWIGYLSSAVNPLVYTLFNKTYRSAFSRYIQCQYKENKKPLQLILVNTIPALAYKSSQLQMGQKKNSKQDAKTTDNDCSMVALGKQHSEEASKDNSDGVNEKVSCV
Sequence of 5-HT2AR (Mus musculus, UniProt P35363) (P35363 whole entry): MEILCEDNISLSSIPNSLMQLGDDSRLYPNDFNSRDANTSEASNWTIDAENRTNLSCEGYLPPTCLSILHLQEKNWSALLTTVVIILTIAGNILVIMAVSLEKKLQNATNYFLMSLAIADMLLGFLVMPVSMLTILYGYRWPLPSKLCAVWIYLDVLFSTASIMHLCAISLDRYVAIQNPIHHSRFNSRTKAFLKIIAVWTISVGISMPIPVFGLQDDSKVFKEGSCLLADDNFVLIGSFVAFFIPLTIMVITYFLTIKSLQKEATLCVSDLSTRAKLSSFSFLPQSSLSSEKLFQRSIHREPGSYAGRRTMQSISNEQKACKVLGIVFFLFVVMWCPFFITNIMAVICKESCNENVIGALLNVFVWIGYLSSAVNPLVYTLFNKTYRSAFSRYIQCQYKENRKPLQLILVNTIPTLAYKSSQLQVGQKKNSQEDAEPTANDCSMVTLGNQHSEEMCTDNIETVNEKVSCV

CCCN1CCC[C@@H]2Cc3n[nH]cc3C[C@H]21 [quinpirole]
Effect on affinity of DOI for 5-HT2AR (5-HT2AR [1]; HEK293 co-expressing 5-HT2AR and D2R, modulator 10^−5 M): marked increase
Effect on affinity of DOI for 5-HT2AR (5-HT2AR [2]; mouse striatum, modulator 10^−5 M): significantly higher
Effect on 5-HT-induced 5-HT2AR-IP3 production (5-HT2AR [3]): have no effect
Effect on DOI-induced 5-HT2AR-IP3 production (5-HT2AR [3]): decrease

C[C@]12N[C@H](Cc3ccccc31)c1ccccc12 [MK-801, dizocilpine]
Locomotor activity [4]: increased locomotor activity

NCCc1c[nH]c2ccc(O)cc12 [5-HT, serotonin]
Emax (inositol phosphate production) (5-HT2AR [5]): 647 ± 74 cpm
Emax (inositol phosphate production) (5-HT2AR [3]; vehicle): 608 ± 12 cpm
Emax (inositol phosphate production) (5-HT2AR [3]; with quinpirole (10^−5 M)): 589 ± 22 cpm
Emax (inositol phosphate production) (5-HT2AR [3]; with ropinirole (10^−5 M)): 564 ± 47 cpm

CCN1CCC[C@H]1CNC(=O)c1c(O)c(Cl)cc(Cl)c1OC [raclopride]
Effect on quinpirole-enhanced DOI affinity for 5-HT2AR (5-HT2AR [2]; [7]): prevents the enhanced effect

COc1cc(CC(C)N)c(OC)cc1I (racemic) [DOI, (+/−)-2,5-dimethoxy-4-iodoamphetamine]
% High (percentage of high-affinity binding sites) (5-HT2AR [1]; HEK-5HT2AR-D2R, with quinpirole (10^−5 M)): 46 ± 3%
Ki (5-HT2AR [2]; Fig. 1C single experiment, control, one-site model): 95 nM
Ki (5-HT2AR [2]; Fig. 1D single experiment, control, one-site model): 3300 nM
% High (percentage of high-affinity binding sites) (5-HT2AR [2]; [7]): 44 ± 2%
Ki (5-HT2AR [2]; read-out: Ki-high, mouse striatum, with quinpirole (10^−5 M), two-site model, mean ± SEM): 0.065 nM
Ki (5-HT2AR [2]; read-out: Ki-low, mouse striatum, vehicle, one-site model, mean ± SEM): 250 nM
Ki (5-HT2AR [2]; read-out: Ki-low, mouse striatum, with quinpirole (10^−5 M) + raclopride (10^−6 M), one-site model, mean ± SEM): 690 nM
Ki (5-HT2AR [2]; read-out: Ki-low, mouse striatum, with quinpirole (10^−5 M), two-site model, mean ± SEM): 510 nM
Ki (5-HT2AR [2]; read-out: Ki-low, mouse striatum, with raclopride (10^−6 M), one-site model, mean ± SEM): 660 nM
% High (percentage of high-affinity binding sites) (5-HT2AR [6]; vehicle): 41 ± 5%
% High (percentage of high-affinity binding sites) (5-HT2AR [6]; with quinpirole (10^−5 M)): 48%

CCCN(CCC)CCc1cccc2c1CC(=O)N2 [ropinirole]
Effect on 5-HT-induced 5-HT2AR-IP3 production (5-HT2AR [3]): have no effect
Effect on DOI-induced 5-HT2AR-IP3 production (5-HT2AR [3]): decrease
